Patent US9504755B2, “Multi-arm polymeric alkanoate conjugates” (Nektar Therapeutics, priority 2008, dated 2016)
Marks after values point to notes of the source that are not given here.

Experiments:
H460 tumors = test: Anti-tumor activity in H460 non-small cell lung mouse xenograft model; format: in vivo
Method: (§1) H460, LS174T and LoVo tumors were established in female athymic nude mice. Groups of 10 mice received a total of three single doses of 4-ARM-PEG20K-BA-DOC or docetaxel administered every 7 days (q7d×3) at several doses up to a maximum tolerated dose (MTD). Control groups received no treatment after tumor implant. Animals were weighed daily for the first five days and twice weekly thereafter. Tumor volumes were measured twice weekly after the first drug injection.
(§2) Anti-tumor activity was measured as changes in tumor volume, time to reach endpoint, and complete or partial tumor regression.
(§3) Treatment outcome was evaluated by Tumor Growth Delay (TGD), which is defined as the increase in median time to endpoint in a treatment group compared to the control group. Here it is expressed as % TGD, as a percentage to the median time to endpoint of the control group.
(§4) A tumor whose volume was reduced to 50% or less for three consecutive measurements compared to its volume on Day 1 was considered to be in partial regression. Complete regression was defined as volume […] 13.5 mm^3 for three consecutive measurements.
(§5) Acceptable toxicity was defined as a group mean body weight (BW) loss of less than 20% during the study and not more than one treatment-related death among ten treated animals.

LS174T tumors = test: Anti-tumor activity in LS174T colorectal mouse xenograft model; format: in vivo
Method: as §1, §2, §3, §4, §5

LoVo tumors = test: Anti-tumor activity in LoVo colorectal mouse xenograft model; format: in vivo
Method: as §1, §2, §3, §4, §5

[1] = Pharmacokinetics after IV infusion in Sprague-Dawley rats; format: in vivo, rat; details: Sprague-Dawley, rat, plasma, male rats, single IV dose 5 mg/kg
Method: The objective of this study was to assess the pharmacokinetics and excretion of docetaxel and 4-ARM-PEG20K-BA-docetaxel after intravenous infusion to rats.
Pharmacokinetics of 4-ARM-PEG20K-BA-docetaxel and docetaxel were evaluated in male rats (15 rats/dose level) dosed with 5, 10, and 15 mg/kg (30, 60, 90 mg/m^2) 4-ARM-PEG20K-BA-docetaxel or 5 mg/kg (30 mg/m^2) docetaxel. 4-ARM-PEG20K-BA-docetaxel and docetaxel were administered via a femoral vein catheter as 30-min intravenous infusions at 4 mL/kg. Blood samples (n=15 timepoints with n=5 samples/dose level/timepoint) were obtained by jugular venipuncture between pre-dose and 144 hours post-dose.

[2] = 18.7 mg/kg (56.1 mg/m^2), q7d×3
[3] = 25 mg/kg (75 mg/m^2), q7d×3 (MTD of docetaxel)
[4] = 12.7 mg/kg (38.1 mg/m^2), q7d×3
[5] = 16.9 mg/kg (50.7 mg/m^2), q7d×3
[6] = 22.5 mg/kg (67.5 mg/m^2), q7d×3
[7] = 30 mg/kg (90 mg/m^2), q7d×3 (MTD of docetaxel)
[8] = 30 mg/kg (90 mg/m^2), q7d×3 (MTD of docetaxel), listed as docetaxel

SMILES: CC(=O)O[C@@]12CO[C@@H]1C[C@H](O)[C@@]1(C)C(=O)[C@H](O)C3=C(C)[C@@H](OC(=O)[C@H](O)[C@@H](NC(=O)OC(C)(C)C)c4ccccc4)C[C@@](O)([C@@H](OC(=O)c4ccccc4)[C@H]21)C3(C)C [Docetaxel, reference compound]
- BW Loss (%) (H460 tumors; 10 mg/kg (30 mg/m^2), q7d×3): 0/0%
- No. Surviving/No. Treated Mice (H460 tumors; 10 mg/kg (30 mg/m^2), q7d×3): 10/10
- TGD (%) (H460 tumors; 10 mg/kg (30 mg/m^2), q7d×3): −2%
- BW Loss (%) (H460 tumors; 14 mg/kg (42 mg/m^2), q7d×3): 4.1%
- Day of BW Nadir (H460 tumors; 14 mg/kg (42 mg/m^2), q7d×3): 19
- No. Surviving/No. Treated Mice (H460 tumors; 14 mg/kg (42 mg/m^2), q7d×3): 10/10
- TGD (%) (H460 tumors; 14 mg/kg (42 mg/m^2), q7d×3): 4%
- BW Loss (%) (H460 tumors; [2]): 9.7%
- Day of BW Nadir (H460 tumors; [2]): 22
- No. Surviving/No. Treated Mice (H460 tumors; [2]): 10/10
- TGD (%) (H460 tumors; [2]): 23%
- Day of BW Nadir (H460 tumors; 25 mg/kg (75 mg/m^2), q7d×3): 26
- No. Surviving/No. Treated Mice (H460 tumors; 25 mg/kg (75 mg/m^2), q7d×3): 10/10
- BW Loss (%) (H460 tumors; [3]): 15.5%
- TGD (%) (H460 tumors; [3]): 48%
- TGD (%) (H460 tumors; 25 mg/kg (75 mg/m^2), q7d×3 (MTD of docetaxel), listed as docetaxel): 48%
- antitumor activity below MTD (H460 tumors; 4-ARM-PEG20K-BA-DOC at 19 mg/kg (58% of its MTD), docetaxel doses less than 25 mg/kg): did not
- BW Loss (%) (LS174T tumors; [4]): 8.8%
- Day of BW Nadir (LS174T tumors; [4]): 23
- No. Surviving/No. Treated Mice (LS174T tumors; [4]): 10/10
- PR (partial regressions) (LS174T tumors; [4]): 0
- TGD (%) (LS174T tumors; [4]): 69* %
- BW Loss (%) (LS174T tumors; [5]): 11.2%
- Day of BW Nadir (LS174T tumors; [5]): 23
- No. Surviving/No. Treated Mice (LS174T tumors; [5]): 10/10
- PR (partial regressions) (LS174T tumors; [5]): 0
- TGD (%) (LS174T tumors; [5]): 96* %
- BW Loss (%) (LS174T tumors; [6]): 6.7%
- Day of BW Nadir (LS174T tumors; [6]): 23
- No. Surviving/No. Treated Mice (LS174T tumors; [6]): 10/10
- PR (partial regressions) (LS174T tumors; [6]): 0
- TGD (%) (LS174T tumors; [6]): 135* %
- Day of BW Nadir (LS174T tumors; 30 mg/kg (90 mg/m^2), q7d×3): 23
- No. Surviving/No. Treated Mice (LS174T tumors; 30 mg/kg (90 mg/m^2), q7d×3): 10/10
- BW Loss (%) (LS174T tumors; [7]): 16.6%
- PR (partial regressions) (LS174T tumors; [7]): 0
- TGD (%) (LS174T tumors; [7]): 166* %
- PR (partial regressions) (LS174T tumors; [8]): no partial regressions
- TGD (%) (LS174T tumors; [8]): 166%
- BW Loss (%) (LoVo tumors; [4]): 5.0%
- Day of BW Nadir (LoVo tumors; [4]): 24
- No. Surviving/No. Treated Mice (LoVo tumors; [4]): 10/10
- PR (partial regressions) (LoVo tumors; [4]): 0
- TGD (%) (LoVo tumors; [4]): 7%
- BW Loss (%) (LoVo tumors; [5]): 12.8%
- Day of BW Nadir (LoVo tumors; [5]): 21
- No. Surviving/No. Treated Mice (LoVo tumors; [5]): 10/10
- PR (partial regressions) (LoVo tumors; [5]): 0
- TGD (%) (LoVo tumors; [5]): 70** %
- BW Loss (%) (LoVo tumors; [6]): 14.6%
- Day of BW Nadir (LoVo tumors; [6]): 24
- No. Surviving/No. Treated Mice (LoVo tumors; [6]): 10/10
- PR (partial regressions) (LoVo tumors; [6]): 0
- TGD (%) (LoVo tumors; [6]): 32* %
- BW Loss (%) (LoVo tumors; 30 mg/kg (90 mg/m^2), q7d×3): 13.3%
- Day of BW Nadir (LoVo tumors; 30 mg/kg (90 mg/m^2), q7d×3): 21
- No. Surviving/No. Treated Mice (LoVo tumors; 30 mg/kg (90 mg/m^2), q7d×3): 10/10
- PR (partial regressions) (LoVo tumors; 30 mg/kg (90 mg/m^2), q7d×3): 0
- TGD (%) (LoVo tumors; 30 mg/kg (90 mg/m^2), q7d×3 (MTD for both agents)): 64** %
- TGD (%) (LoVo tumors; 30 mg/kg (90 mg/m^2), q7d×3 (MTD for both agents), listed as docetaxel): 64%
- AUC(0-t) ([1]; read-out: AUClast, analyte docetaxel): 1420 ng·h/mL
- Cmax ([1]; read-out: Cmax, analyte docetaxel): 682 ng/mL
- Tmax ([1]; read-out: Tmax, analyte docetaxel): 30 min
